According to ChEMBL document CHEMBL1129889, “Design and synthesis of novel nonpeptide CCK-B receptor antagonists” (Bioorg Med Chem Lett, 1997):
pIC50: −log10 of the molar value.

What was measured:
[1] = target: T1, Gastrin/cholecystokinin type B receptor (Mus musculus, UniProt P56481); assay: Inhibition of [125 I]CCK-8 binding to Cholecystokinin type B receptor of mouse cerebral cortex; assay type: tissue-based
T1 sequence (P56481 whole entry): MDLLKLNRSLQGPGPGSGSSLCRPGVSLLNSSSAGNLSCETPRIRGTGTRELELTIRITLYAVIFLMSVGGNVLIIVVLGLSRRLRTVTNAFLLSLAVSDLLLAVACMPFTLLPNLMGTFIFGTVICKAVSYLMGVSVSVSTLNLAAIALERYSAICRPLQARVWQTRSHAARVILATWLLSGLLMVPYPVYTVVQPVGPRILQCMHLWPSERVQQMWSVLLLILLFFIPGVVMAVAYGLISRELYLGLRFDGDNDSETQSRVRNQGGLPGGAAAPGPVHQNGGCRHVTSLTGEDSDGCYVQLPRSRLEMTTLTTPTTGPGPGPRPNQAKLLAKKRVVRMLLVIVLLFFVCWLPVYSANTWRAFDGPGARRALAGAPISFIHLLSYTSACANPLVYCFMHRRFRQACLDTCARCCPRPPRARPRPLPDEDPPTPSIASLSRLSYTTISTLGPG

[2] = target: T2, Cholecystokinin receptor type A (Rattus norvegicus, UniProt P30551); assay: Inhibition of specific binding of [125 I] Bolton Hunter CCK-8 to Cholecystokinin type A receptor in the rat pancreas
T2 sequence (P30551 whole entry): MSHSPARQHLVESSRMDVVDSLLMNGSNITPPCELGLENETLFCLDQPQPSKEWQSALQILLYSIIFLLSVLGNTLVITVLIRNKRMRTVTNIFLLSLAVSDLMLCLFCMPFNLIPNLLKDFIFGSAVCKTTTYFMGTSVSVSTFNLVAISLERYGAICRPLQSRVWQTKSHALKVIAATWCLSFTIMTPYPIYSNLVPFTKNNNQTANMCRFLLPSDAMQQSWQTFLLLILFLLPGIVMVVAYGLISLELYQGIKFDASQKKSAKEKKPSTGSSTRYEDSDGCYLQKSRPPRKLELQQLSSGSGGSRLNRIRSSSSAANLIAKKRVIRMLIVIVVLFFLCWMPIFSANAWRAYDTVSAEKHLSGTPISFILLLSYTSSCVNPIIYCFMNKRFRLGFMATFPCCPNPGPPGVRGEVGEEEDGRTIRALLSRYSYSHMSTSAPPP

[3] = target: T3, Gastrin/cholecystokinin type B receptor (Mus musculus) (UniProt P56481); assay: Binding activity
T3 sequence (whole entry): T1 sequence (P56481 whole entry)

Row | SMILES | pIC50 [1] | pIC50 [2] | Ke [3] [nM]
1 | CC(C)Oc1cccc(-n2c(CNC(=O)NCc3ccc(Br)cc3)nc3ccccc3c2=O)c1 | 6.19 | 5.51 | 
2 | Cc1ccc(S(=O)(=O)NC(=O)NCc2nc3ccccc3c(=O)n2-c2cccc(OC(C)C)c2)cc1 | < 6.00 | < 6.00 | 
3 | CC(C)Oc1cccc(-n2c(NC(=O)Nc3ccc(Br)cc3)nc3ccccc3c2=O)c1 | < 6.00 | < 6.00 | 
4 | CC(C)Oc1cccc(-n2c(CNC(=S)Nc3ccc(Br)cc3)nc3ccccc3c2=O)c1 | 5.10 | 5.16 | 
5 | CC(C)Oc1cccc(-n2c(CCNC(=O)Nc3ccc(Br)cc3)nc3ccccc3c2=O)c1 | 6.23 | 5.79 | 
6 | CCOC(=O)c1cccc(NC(=O)NCc2nc3ccccc3c(=O)n2-c2cccc(OC(C)C)c2)c1 | 6.90 | 5.83 | 230

Further lines, results first:

Row | pIC50 [1] | pIC50 [2] | Ke [3] [nM] | SMILES
7 | 6.06 | 5.79 |  | Cc1cccc(NC(=O)NCc2nc3ccccc3c(=O)n2-c2cccc(OC(C)C)c2)c1
8 | 6.16 | 6.17 |  | CC(C)Oc1cccc(-n2c(CNC(=O)Nc3ccc(C(F)(F)F)cc3)nc3ccccc3c2=O)c1
9 | 6.67 | 6.41 |  | CC(C)Oc1cccc(-n2c(CNC(=O)Nc3ccc([N+](=O)[O-])cc3)nc3ccccc3c2=O)c1
10 | 6.86 | 6.01 | 1300 | CC(C)Oc1cccc(-n2c(CNC(=O)Nc3ccc(Br)cc3)nc3ccccc3c2=O)c1
